The values that follow come from patent publication US20040219202A1, “Pharmaceutical composition comprising lipids comprising a polar and a nonpolar moiety” (priority 2001, published 2004).

One assay deals with Panc-1 cells. Briefly: Transfection of Panc-1 cells with LMDs (liposome:mu:DNA), β-galactosidase reporter assay. It counts as cell-based. The procedure: (§1) Purity of the lipids was checked by TLC or HPLC. All lipids were stored as stock solutions in anhydrous CH2Cl2, at concentrations of either 5 mg/ml or 10 mg/ml, at −80° C., under Ar. In order to prepare cationic liposomes, lipids were added to a round-bottomed flask, via syringe, under Ar, and further freshly distilled CH2Cl2 was added, if necessary, to give a concentration of around 2.5 mg/ml. Then, 4 mM HEPES pH 7.0 (1 ml) was added, and the biphasic system was swirled to mix. A liposomal suspension was created by removing the organic solvent under reduced pressure at 25° C., followed by sonication for 2-5 min. in a water bath sonicator. Doubly-distilled water was added, if necessary, to return the total volume to 1 ml. All liposomal solutions were prepared at a final concentration of 5 mg/ml. The pH of the liposomal suspension was checked by pH Boy (Camlab Ltd., Over, Cambridgeshire, UK) and adjusted to pH 7.0±0.1 with concentrated aqueous solutions of HCl and NaOH.
(§2) Liposomes were extruded (Extruder, Northern Upids, Inc., Vancouver, BC, Canada) by passing through two 100 nm polycarbonate filters (Isopore™ Membrane Filters, Millipore (UK) Ltd., Watford, Hertfordshire, UK) ten times. For each preparation, the size distribution of liposomes was measured by photon correlation spectroscopy (PCS) (Coulter® N4 Plus Submicron Particle Sizer, Beckman Coulter, High Wycombe, Buckinghamshire, UK). For phospholipid-containing liposomes, phospholipid concentrations were checked by the Stewart assay.^23 In each case, a final lipid concentration of 4.7±0.1 mg/ml was observed. For non-phospholipid containing liposomes, lipid loss was also inevitable on extrusion. For all fast-extruding liposomal suspensions, total lipid concentration was assumed to be 4.7 mg/ml. For slower extrusions, total lipid concentrations were assumed to be 4.3 mg/ml. Very slowly extruding liposomes were extruded three times only and assumed to be 4.7 mg/ml.
(§3) Plasmid DNA containing the β-galactosidase gene (pNGVL1-nt-beta-gal; 7.53 kbp) was stored as frozen aliquots at −80° C., at a concentration of 1.2 mg/ml; μ (mu) peptide (adenoviral core peptide [H2N-Met-Arg-Arg-Ala-His-His-Arg-Arg-Arg-Arg-Ala-Ser-His-Arg-Arg-Met-Arg-Gly-Gly-CO2H]) was synthesised as described previously,^7 and maintained at 4° C. in aliquots of 1 mg/ml. Mu-DNA complexes were made by adding plasmid DNA to mu in 4 mM HEPES at a ratio of 1:0.6 (w/w) with fast vortexing. LMDs were prepared by complexing mu-DNA particles with cationic liposomes (as prepared above) in a ratio of 1:12 (w/w), such that all LMDs for all formulations were substantially cationic. For each preparation, the size distribution of LMDs was measured by PCS.
Panc-1 cells were maintained in RPMI/10% FCS/1% penicillin-streptomycin (Gibco™, Invitrogen Corporation, Paisley, Scotland, UK) at 37° C./5% CO2 in a humidified atmosphere. Twenty-four hours prior to transfection, 30 000 cells per well were seeded in 48 well microtitre plates (Corning Costar, Merck Ltd., Lutterworth, Leicestershire, UK) in 500 μl medium. As a control, plasmid DNA (0.5 μg in 200 μl medium) was added to a well. As a positive control, 1.5 μl Transfast™ (Promega Corporation, Madison, Wis., USA; prepared according to the supplier's protocol) in 200 μl medium was complexed with plasmid DNA (0.5 μg) and added to a well. 5 μl (0.5 μg DNA) of LMD formulation was added to each well. All experiments were performed in quadruplicate. The plate was swirled for 30 s, and incubated for 1 h at 37° C. Medium was then removed, and 500 μl of fresh medium was added. The cells were incubated at 37° C. for a further 24 h.
Medium was aspirated from the wells and the cell layer was washed with phosphate buffered saline (PBS) (Gibco™). The cells of each well were lysed in 150 μl lysis reagent (prepared according to the supplier's protocol; β-Gal Reporter Gene Assay, Roche Diagnostics GmbH, D-68305 Mannheim, Germany) at room temperature for 30 min. […]

A further assay has as its system COS-7 cells. Briefly: Transfection of COS-7 cells with LMDs (liposome:mu:DNA), β-galactosidase reporter assay. The class given is cell-based. As to conditions: for Transfection relative to DOPE (fraction): CDAN:Helper Lipid, summary. The procedure:
as §1, §2, §3
COS-7 cells were maintained in DMEM/10% FCS/1% penicillin-streptomycin (Gibco™) at 37° C./5% CO2 in a humidified atmosphere. Twenty-four hours prior to transfection, 10 000 cells per well were seeded in 48-well microtitre plates (Coming Costar) in 500 μl medium. Plasmid DNA and Transfast™ controls were prepared as above. 5 μl (0.5 μg DNA) of LMD formulation was added to each well. All experiments were performed in quadruplicate. The plate was swirled for 30 s, and incubated for 1 h at 37° C. Medium was then removed, and 500 μl of fresh medium was added. The cells were incubated at 37° C. for a further 24 h.
Medium was aspirated from the wells and the cell layer was washed with phosphate buffered saline (PBS) (Gibco™). The cells of each well were lysed in 150 μl lysis reagent (prepared according to the supplier's protocol; β-Gal Reporter Gene Assay, Roche Diagnostics GmbH, D-68305 Mannheim, Germany) at room temperature for 30 min. After lysis, […], 50 μl and 20 μl, of each cell suspension were used for the determination of β-galactosidase activity and for the determination of total cellular protein (to normalise results), respectively.
In the β-gal assay, 100 μl of the substrate reagent was added to 50 μl of the cell suspension in a white 96-well microplate (Coming Costar). […]

For assay [1] the following is noted: literature statement; cited from earlier work.
[2] abbreviates: LMDs of CDAN:Helper Lipid, 1:1 liposomes, DOPC-analogues, FIG. 13.
The mark [3] stands for this setting: LMDs of CDAN:Helper Lipid, 1:1 liposomes, DOPE-analogues, FIG. 16.
Setting [4] is: LMDs of CDAN:Helper Lipid, 2:3 liposomes, FIG. 17.
[5] abbreviates: LMDs of CDAN:Helper Lipid, 3:2 liposomes, FIG. 15.
The mark [6] stands for this setting: LMDs of CDAN:Helper Lipid, 1:1 liposomes, FIG. 14.
[7] abbreviates: LMDs of DOPE:Cationic Lipid, 1:1 liposomes, FIG. 21.
The mark [8] stands for this setting: LMDs of pure DOTAP or DOTAP-analogue liposomes, FIG. 20.

The structures appear in SMILES notation. Entries after “also recorded” stand apart in the source; their conditions may differ.

For the compound `CCCCCCCCCCCCCC#CCCC(=O)OC[C@H](COP(=O)([O-])OCC[N+](C)(C)C)OC(=O)CCC#CCCCCCCCCCCCCC` [DO(4-yne)PC], the “Transfection (β-galactosidase activity)” value is “almost complete loss of any transfection ability” in the assay with Panc-1 cells (LMDs of CDAN:Helper Lipid, 1:1 (mol/mol) liposomes, DOPC-analogues, FIG. 12) and “a fall in transfection ability” with COS-7 cells (setting [2]).

On to `CCCCCCCCCCCCC#CC#CCCCCCCCCCC(=O)NCCN(CCNC(=N)N)CCNC(=N)N` [BGDA, bisguanidinium-diacetylene], for which the “In vitro transfection in cationic liposome formulations” value in assay [1] was “highly efficient”.

For `CCCC#CCCCCCCCCCCCCC(=O)OC[C@H](COP(=O)(O)OCCN)OC(=O)CCCCCCCCCCCCC#CCCC` [DO(14-yne)PE], the “Transfection (β-galactosidase activity)” value with Panc-1 cells (setting [3]) is given as “transfects around half as well as DOPE”; in the assay with Panc-1 cells (setting [4]) it was “transfects the least well out of the monoacetylenic analogues”; in the assay on Panc-1 cells (setting [5]) it was “transfect very poorly”. Besides, the “Transfection relative to DOPE (fraction)” value in the assay on COS-7 cells (1:1 liposomes) is given as “about 1/3”. The “Fall in transfection on substituting DOPE” value with COS-7 cells (setting [6]) is recorded as “about 67%”.

Consider `CCCCCCCCCCCCCC#CCCC(=O)OC[C@H](COP(=O)(O)OCCN)OC(=O)CCC#CCCCCCCCCCCCCC` [DO(4-yne)PE], for which the “Transfection (β-galactosidase activity)” value with Panc-1 cells (CDAN:Helper Lipid, 2:3, repeat, liposomes not fresh, LMDs fresh, FIG. 18) is “fallen to around that of Transfast”; with Panc-1 cells (setting [3]) it was “transfect well and approximately to the same degree; also recorded: all transfect equally well”; with Panc-1 cells (setting [4]), “transfect the best, up to five times better than DOPE”; in the assay on Panc-1 cells (setting [5]), “transfect very poorly”. Also, the “Transfection relative to DOPE (fraction)” value in the assay on COS-7 cells (1:1 liposomes) is on record as “about 1/3”. The “Fall in transfection on substituting DOPE” value with COS-7 cells (setting [6]) is given as “about 67%”.

In the case of `CCCCCCCC/C=C\CCCCCCCC(=O)OCC(COP(=O)(O)OCCN)OC(=O)CCCCCCC/C=C\CCCCCCCC` (stereo not drawn) [DOPE, dioleoylphosphatidylethanolamine], the “Transfection (β-galactosidase activity)” value in the assay on Panc-1 cells (setting [3]) was “transfect well and approximately to the same degree; also recorded: all transfect equally well”; with Panc-1 cells (setting [4]), “below that of Transfast”; in the assay with Panc-1 cells (setting [5]) it was “transfects around as twice as well as the nearest acetylenic analogue; also recorded: transfects better than all the monoacetylenic analogues”; in the assay with COS-7 cells (LMDs of CDAN:Helper Lipid, 1:1 liposomes, DOPE-analogues, FIG. 14), “transfection levels are high and approximately the same; also recorded: transfect COS-7 cells very well and to a similar degree”.

For the compound `CCCCCCCCC#CCCCCCCCC(=O)OCC(C[N+](C)(C)C)OC(=O)CCCCCCCC#CCCCCCCCC.COS(=O)(=O)[O-]` (stereo not drawn) [DO(9-yne)TAP], the “Transfection (β-galactosidase activity)” value is reported as “transfects as well as DOTAP” in the assay with Panc-1 cells (LMDs of Cholesterol:Cationic Lipid, 1:1 liposomes, FIG. 22); “a small increase in transfection” with Panc-1 cells (setting [7]); “transfects around one and-a-half times better than standard DOTAP; also recorded: transfect as well as DOTAP liposomes” with COS-7 cells (setting [8]).

Consider `CCCC#CCCCCCCCCCCCCC(=O)OCC(C[N+](C)(C)C)OC(=O)CCCCCCCCCCCCC#CCCC.COS(=O)(=O)[O-]` (stereo not drawn) [DO(14-yne)TAP], for which the “Loss of transfection activity on replacing DOTAP” value in the assay with Panc-1 cells (Cholesterol:Cationic Lipid, 1:1 liposomes, FIG. 22) is given as “around 30%”. The “Transfection (β-galactosidase activity)” value with Panc-1 cells (LMDs composed entirely of DOTAP or DOTAP-analogue liposomes, FIG. 19) was “a six-fold improvement on standard DOTAP; also recorded: transfect up to six times better than DOTAP; also recorded: transfects better than DOTAP”; in the assay on Panc-1 cells (setting [7]), “a seven-fold increase”; in the assay on COS-7 cells (setting [8]), “almost total loss of transfection activity; also recorded: almost no transfection at all”.

Turning to `CCCCCCCC/C=C\CCCCCCCC(=O)OC[C@H](COP(=O)([O-])OCC[N+](C)(C)C)OC(=O)CCCCCCC/C=C\CCCCCCCC` [DOPC], the “In vitro transfection in cationic liposome formulations” value in assay [1] is listed as “eliminate or severely attenuate transfection”. Moreover, the “Transfection (β-galactosidase activity)” value in the assay with COS-7 cells (setting [2]) is recorded as “transfect equally well”.
